According to ChEMBL document CHEMBL1157388, “Recent developments in fragment-based drug discovery” (J Med Chem, 2008):
Blank lines part the entries; values can stand above or below the compound they belong to.

Tests used:
[1] = target: Urokinase-type plasminogen activator (Homo sapiens, UniProt P00749)
Caspase-1 = target: T1, Caspase-1 (Homo sapiens, UniProt P29466); experiment: Inhibition of caspase 1
T1 sequence (P29466 whole entry): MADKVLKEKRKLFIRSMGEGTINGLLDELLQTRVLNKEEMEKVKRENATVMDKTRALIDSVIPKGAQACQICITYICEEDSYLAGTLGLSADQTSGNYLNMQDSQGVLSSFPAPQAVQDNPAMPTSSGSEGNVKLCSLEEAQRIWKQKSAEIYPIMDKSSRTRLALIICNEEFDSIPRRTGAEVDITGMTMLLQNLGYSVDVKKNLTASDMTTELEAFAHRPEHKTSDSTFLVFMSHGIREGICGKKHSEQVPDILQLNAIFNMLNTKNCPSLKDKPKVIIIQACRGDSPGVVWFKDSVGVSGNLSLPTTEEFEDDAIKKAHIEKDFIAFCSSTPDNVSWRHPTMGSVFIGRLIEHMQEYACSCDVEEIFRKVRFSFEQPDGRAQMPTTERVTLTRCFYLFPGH

Prothrombin = Prothrombin (Homo sapiens, UniProt P00734); experiment: Inhibition of thrombin
Carbonic anhydrase 2 = Carbonic anhydrase 2 (Bos taurus, UniProt P00921)
[2] = target: RAC-alpha serine/threonine-protein kinase (Homo sapiens, UniProt P31749); experiment: Inhibition of protein kinase B
Aurora kinase A = target: T2, Aurora kinase A (Homo sapiens, UniProt O14965)
T2 sequence (O14965 whole entry): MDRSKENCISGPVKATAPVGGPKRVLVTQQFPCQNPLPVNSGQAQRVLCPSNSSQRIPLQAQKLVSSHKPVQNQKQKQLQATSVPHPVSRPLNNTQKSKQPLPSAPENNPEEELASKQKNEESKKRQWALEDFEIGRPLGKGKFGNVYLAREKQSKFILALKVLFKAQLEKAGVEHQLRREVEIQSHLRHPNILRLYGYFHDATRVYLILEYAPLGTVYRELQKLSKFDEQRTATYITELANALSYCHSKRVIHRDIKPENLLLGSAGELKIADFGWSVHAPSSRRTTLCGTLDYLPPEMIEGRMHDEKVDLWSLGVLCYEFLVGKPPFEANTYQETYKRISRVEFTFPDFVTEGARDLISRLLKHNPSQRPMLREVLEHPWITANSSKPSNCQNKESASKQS

[3] = target: Heat shock protein HSP 90-beta (Homo sapiens, UniProt P08238)
[4] = target: T3, Queuine tRNA-ribosyltransferase catalytic subunit 1 (Homo sapiens, UniProt Q9BXR0)
T3 sequence (Q9BXR0 whole entry): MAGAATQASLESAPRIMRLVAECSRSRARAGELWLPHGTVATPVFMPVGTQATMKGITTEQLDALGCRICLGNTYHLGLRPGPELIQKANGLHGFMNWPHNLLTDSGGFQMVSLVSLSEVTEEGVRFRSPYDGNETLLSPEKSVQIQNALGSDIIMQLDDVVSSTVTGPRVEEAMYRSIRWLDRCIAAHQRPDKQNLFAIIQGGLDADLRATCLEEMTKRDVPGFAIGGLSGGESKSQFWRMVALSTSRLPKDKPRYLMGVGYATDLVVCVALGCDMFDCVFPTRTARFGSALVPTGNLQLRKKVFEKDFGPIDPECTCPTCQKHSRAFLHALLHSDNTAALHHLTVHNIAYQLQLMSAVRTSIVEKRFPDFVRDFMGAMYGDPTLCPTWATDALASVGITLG

[5] = Inhibition of PDE4

Heat shock protein HSP 90-beta, sequence (P08238 whole entry): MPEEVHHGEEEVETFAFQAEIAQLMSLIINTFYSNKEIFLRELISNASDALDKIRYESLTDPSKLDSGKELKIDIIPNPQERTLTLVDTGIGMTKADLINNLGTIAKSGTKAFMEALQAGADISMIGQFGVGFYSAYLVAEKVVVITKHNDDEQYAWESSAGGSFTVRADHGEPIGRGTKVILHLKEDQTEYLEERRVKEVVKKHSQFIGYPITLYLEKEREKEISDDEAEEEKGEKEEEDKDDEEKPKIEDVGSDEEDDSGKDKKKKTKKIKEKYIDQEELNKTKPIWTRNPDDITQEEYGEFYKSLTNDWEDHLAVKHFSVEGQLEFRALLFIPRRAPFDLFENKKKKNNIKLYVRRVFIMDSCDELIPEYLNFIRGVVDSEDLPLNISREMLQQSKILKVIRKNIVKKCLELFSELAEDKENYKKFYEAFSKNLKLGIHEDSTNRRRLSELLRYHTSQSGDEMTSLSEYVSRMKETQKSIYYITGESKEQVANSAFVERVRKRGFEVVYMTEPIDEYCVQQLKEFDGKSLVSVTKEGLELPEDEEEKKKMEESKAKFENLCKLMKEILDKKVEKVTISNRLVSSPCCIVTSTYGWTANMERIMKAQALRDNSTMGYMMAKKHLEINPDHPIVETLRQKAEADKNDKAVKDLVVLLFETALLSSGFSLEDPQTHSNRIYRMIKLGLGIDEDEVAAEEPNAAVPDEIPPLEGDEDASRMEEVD
Carbonic anhydrase 2, sequence (P00921 whole entry): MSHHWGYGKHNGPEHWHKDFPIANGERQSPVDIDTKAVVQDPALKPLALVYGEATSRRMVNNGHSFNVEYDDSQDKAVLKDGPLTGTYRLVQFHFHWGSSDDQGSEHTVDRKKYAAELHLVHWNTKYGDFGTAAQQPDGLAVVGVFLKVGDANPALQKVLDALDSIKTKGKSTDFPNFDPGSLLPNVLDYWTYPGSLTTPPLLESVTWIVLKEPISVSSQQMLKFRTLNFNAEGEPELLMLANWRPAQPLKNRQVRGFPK
RAC-alpha serine/threonine-protein kinase, sequence (P31749 whole entry): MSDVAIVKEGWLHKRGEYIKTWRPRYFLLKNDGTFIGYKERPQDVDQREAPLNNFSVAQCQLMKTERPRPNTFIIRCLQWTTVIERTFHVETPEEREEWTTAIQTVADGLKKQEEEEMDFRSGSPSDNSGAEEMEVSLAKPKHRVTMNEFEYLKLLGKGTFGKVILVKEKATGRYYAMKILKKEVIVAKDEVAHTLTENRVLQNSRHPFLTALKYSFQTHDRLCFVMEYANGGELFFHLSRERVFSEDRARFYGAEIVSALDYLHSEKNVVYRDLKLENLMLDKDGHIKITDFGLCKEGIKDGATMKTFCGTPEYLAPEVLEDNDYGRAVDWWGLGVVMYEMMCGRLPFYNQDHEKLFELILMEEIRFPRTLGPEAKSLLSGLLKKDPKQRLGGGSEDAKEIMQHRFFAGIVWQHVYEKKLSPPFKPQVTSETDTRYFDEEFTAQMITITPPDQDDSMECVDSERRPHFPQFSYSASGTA

- IC50 [1]: 200000 nM
Compound: Nc1nc2cc(O)ccc2[nH]1

- IC50 (Caspase-1): 5 nM
Compound: O=C[C@H](CC(=O)O)NC(=O)c1ccc(CNC(=O)c2ccc(Nc3cnc4ccccc4n3)cc2)nc1

- IC50 (Prothrombin): 4 nM
Compound: COc1ccc(S(=O)(=O)NC[C@@H](O)[C@H](Cc2ccccc2)NCc2cc(Cl)ccc2-n2cnnn2)cc1

- Kd (Carbonic anhydrase 2): 37 nM
Compound: C#Cc1ccc(S(N)(=O)=O)cc1

- IC50 (Caspase-1): 190 nM
Compound: O=C[C@H](CC(=O)O)NC(=O)CCCCCNC(=O)c1ccc(Nc2cnc3ccccc3n2)cc1

- IC50 [2]: 135000 nM
Compound: c1ccc(-c2cn[nH]c2)cc1

- IC50 (Aurora kinase A): 94 nM
Compound: COc1cc2[nH]c3ncnc(N4CCN(C(=S)Nc5ccc(S(=O)(=O)Nc6ncccn6)cc5)CC4)c3c2cc1OC

- IC50 (Aurora kinase A): 3000 nM
Compound: COc1cc2[nH]c3ncnc(Cl)c3c2cc1OC

- Kd [3]: 150000 nM
Compound: O=C1OCC/C1=C\Nc1ccccc1

- Ki [4]: 3700 nM
Compound: COc1ccc(CCc2c3nc[nH]c3cc3c(=O)[nH]c(N)nc23)cc1

Compound: CC(C)[C@@H](C(=O)N1CC2CCC(CC2)C1)n1cc(-c2ccc(S(N)(=O)=O)cc2)nn1
- Kd (Carbonic anhydrase 2): 0.2 nM

- Kd [3]: 4000 nM
Compound: Cc1cc(C#Cc2ccccc2/C=N/N2CCOC2=O)nc(N)n1

- IC50 [5]: 19 nM
Compound: CCOC(=O)c1c(C)nn(-c2ccccc2Cl)c1C

- Ki [4]: 2100 nM
Compound: Nc1nc2ccccc2c(=O)[nH]1

- IC50 (Aurora kinase A): 21000 nM
Compound: Nc1ccc(S(=O)(=O)Nc2ncccn2)cc1 [SULFADIAZINE]
